{
  "source": "ChEMBL document CHEMBL1156526",
  "about": "“Specificity and mechanism of action of EHT 1864, a novel small molecule inhibitor of Rac family small GTPases” (2007)",
  "key": {"[1]": {"target": "Ras-related C3 botulinum toxin substrate 3 (Homo sapiens) (UniProt P60763)", "assay": "Binding affinity at Rac3 at 1 uM by fluorescence anisotropy"}, "NIH3T3 [2]": {"system": "NIH3T3", "assay": "Inhibition on Tiam1 C1199 mutant-induced focus forming activity in mouse NIH3T3 cells at 5 uM", "format": "cell-based"}, "[3]": {"target": "Ras-related C3 botulinum toxin substrate 1 (Mus musculus) (UniProt P63001)", "assay": "Effect on Rac1 binding to RhoGDI1 in mouse NIH3T3 cells by Western blot analysis", "format": "cell-based"}, "NIH3T3 [4]": {"system": "NIH3T3", "assay": "Inhibition of Rac1 61L mutant-induced cellular transformation in mouse NIH3T3 cells at 5 uM after 3 to 5 weeks", "format": "cell-based"}, "NIH3T3 [5]": {"system": "NIH3T3", "assay": "Inhibition of lysophosphatidic acid-induced actin stress fibers formation in mouse NIH3T3 cells at 5 uM", "format": "functional, cell-based"}, "[6]": {"target": "Cell division control protein 42 homolog (Homo sapiens) (UniProt P60953)", "sequence (P60953 whole entry, looked up)": "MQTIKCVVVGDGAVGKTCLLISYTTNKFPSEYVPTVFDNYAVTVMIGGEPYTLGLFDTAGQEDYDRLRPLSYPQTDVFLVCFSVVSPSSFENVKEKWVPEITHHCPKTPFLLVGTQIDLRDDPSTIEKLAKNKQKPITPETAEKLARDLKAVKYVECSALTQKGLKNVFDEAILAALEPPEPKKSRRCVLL", "assay": "Inhibition of Cdc42-PAK-RBD complex formation in platelet derived growth factor-induced human U87MG cells at 50 uM by fluorescence anisotropy", "format": "cell-based", "settings": "U-87MG ATCC"}, "NIH3T3 [7]": {"system": "NIH3T3", "assay": "Inhibition of H-Ras 61L mutant-induced focus formation in mouse NIH3T3 cells at 5 uM after 14 days", "format": "cell-based"}, "NIH3T3 [8]": {"system": "NIH3T3", "assay": "Inhibition on Rac1 61L […]-induced focus forming activity in mouse NIH3T3 cells at 5 uM", "format": "cell-based"}, "NIH3T3 [9]": {"system": "NIH3T3", "assay": "Inhibition of bradykinin-induced filopodia formation in mouse NIH3T3 cells at 5 uM", "format": "functional, cell-based"}, "NIH3T3 [10]": {"system": "NIH3T3", "assay": "Inhibition on Rac1 61L-induced focus forming activity in mouse NIH3T3 cells at 5 uM", "format": "cell-based"}, "[11]": {"target": "Cell division control protein 42 homolog (Homo sapiens) (UniProt P60953)", "assay": "Binding affinity at Cdc42 at 1 uM by fluorescence anisotropy"}, "293T": {"system": "293T", "assay": "Effect on interaction between Rac1 15A mutant and human Tiam1 C1199 mutant expressed in 293T cells by Western blot analysis", "format": "cell-based"}, "NIH3T3 [12]": {"system": "NIH3T3", "assay": "Inhibition of platelet derived growth factor-induced lamellipodia formation in mouse NIH3T3 cells at 5 uM", "format": "functional"}, "[13]": {"target": "Ras-related C3 botulinum toxin substrate 1 (Mus musculus) (UniProt P63001)", "assay": "Effect on Rac1 binding to RhoGDI2 in mouse NIH3T3 cells by Western blot analysis", "format": "cell-based"}, "NIH3T3 [14]": {"system": "NIH3T3", "assay": "Inhibition of Ras-induced cell growth in H-Ras 61L expressing mouse NIH3T3 cells at 5 uM by MTT assay", "format": "cell-based"}, "NIH3T3 [15]": {"system": "NIH3T3", "assay": "Effect on interaction between Rac1 15A mutant and human Tiam1 C1199 mutant expressed in NIH3T3 cells by Western blot analysis", "format": "cell-based"}, "U-87 MG [16]": {"system": "U-87 MG", "assay": "Reduction of RhoA-GTPase level in platelet derived growth factor-induced human U87MG cells measured with GST-rhotekin-RBD by pulldown assay", "format": "functional, cell-based", "settings": "U-87MG ATCC"}, "[17]": {"target": "Ras-related C3 botulinum toxin substrate 2 (Homo sapiens) (UniProt P15153)", "assay": "Binding affinity at Rac2 at 1 uM by fluorescence anisotropy"}, "[18]": {"target": "Cell division control protein 42 homolog (Homo sapiens) (UniProt P60953)", "assay": "Inhibition of platelet derived growth factor-induced endogenous association of Cdc42 with GST-PAK-RBD in human U87MG cells after 5 mins by Western blot analysis", "format": "cell-based", "settings": "U-87MG ATCC"}, "U-87 MG [19]": {"system": "U-87 MG", "assay": "Reduction of RhoA-GTPase level in platelet derived growth factor-induced human U87MG cells measured with GST-PAK-RBD by pulldown assay", "format": "functional, cell-based", "settings": "U-87MG ATCC"}, "U-87 MG [20]": {"system": "U-87 MG", "assay": "Reduction of Rac1-GTPase level in platelet derived growth factor-induced human U87MG cells measured with GST-rhotekin-RBD by pulldown assay", "format": "functional, cell-based", "settings": "U-87MG ATCC"}, "U-87 MG [21]": {"system": "U-87 MG", "assay": "Reduction of Cdc42-GTPase level in platelet derived growth factor-induced human U87MG cells measured with GST-rhotekin-RBD by pulldown assay", "format": "functional, cell-based", "settings": "U-87MG ATCC"}, "U-87 MG [22]": {"system": "U-87 MG", "assay": "Reduction of Rac1-GTPase level in platelet derived growth factor-induced human U87MG cells measured with GST-PAK-RBD by pulldown assay", "format": "functional, cell-based", "settings": "U-87MG ATCC"}, "U-87 MG [23]": {"system": "U-87 MG", "assay": "Reduction of Cdc42-GTPase level in platelet derived growth factor-induced human U87MG cells measured with GST-PAK-RBD by pulldown assay", "format": "functional, cell-based", "settings": "U-87MG ATCC"}},
  "note": "The source made the active and inactive calls. The calls are words filed in the database; no cut-off is given here.",
  "data": [
    {"smiles": "O=c1cc(CN2CCOCC2)occ1OCCCCCSc1ccnc2cc(C(F)(F)F)ccc12", "values": [
      {"measurement": "Activity", "setting": "[1]", "result": "Active"},
      {"measurement": "Activity", "setting": "NIH3T3 [2]", "result": "Active"},
      {"measurement": "Activity", "setting": "[3]", "result": "Active"},
      {"measurement": "Activity", "setting": "NIH3T3 [4]", "result": "Active"},
      {"measurement": "Activity", "setting": "NIH3T3 [5]", "result": "Active"},
      {"measurement": "Activity", "setting": "[6]", "result": "inactive"},
      {"measurement": "Activity", "setting": "NIH3T3 [7]", "result": "inactive"},
      {"measurement": "Activity", "setting": "NIH3T3 [8]", "result": "inactive"},
      {"measurement": "Activity", "setting": "NIH3T3 [9]", "result": "Active"},
      {"measurement": "inhibition", "setting": "NIH3T3 [10]", "result": 80, "unit": "%"},
      {"measurement": "Activity", "setting": "[11]", "result": "inactive"},
      {"measurement": "Activity", "setting": "293T", "result": "inactive"},
      {"measurement": "inhibition at 5 µM", "setting": "NIH3T3 [12]", "result": 80, "unit": "%"},
      {"measurement": "Activity", "setting": "[13]", "result": "Active"},
      {"measurement": "Activity", "setting": "NIH3T3 [14]", "result": "Active"},
      {"measurement": "Activity", "setting": "NIH3T3 [15]", "result": "inactive"},
      {"measurement": "Activity", "setting": "U-87 MG [16]", "result": "Active"},
      {"measurement": "Activity", "setting": "[17]", "result": "Active"},
      {"measurement": "Activity", "setting": "[18]", "result": "inactive"}
    ]},
    {"smiles": "O=c1cc(CN2CCNCC2)occ1OCCCCCSc1ccnc2cc(C(F)(F)F)ccc12", "values": [
      {"measurement": "Activity", "setting": "U-87 MG [19]", "result": "inactive"},
      {"measurement": "Activity", "setting": "U-87 MG [20]", "result": "inactive"},
      {"measurement": "Activity", "setting": "U-87 MG [21]", "result": "inactive"},
      {"measurement": "Activity", "setting": "U-87 MG [22]", "result": "inactive"},
      {"measurement": "Activity", "setting": "U-87 MG [16]", "result": "inactive"},
      {"measurement": "Activity", "setting": "U-87 MG [23]", "result": "inactive"}
    ]},
    {"smiles": "CCN(CC)CCCC(C)Nc1nc(C)cc(Nc2ccc3nc(C)cc(N)c3c2)n1", "note": "(stereo unspecified)", "values": [
      {"measurement": "Activity", "setting": "NIH3T3 [4]", "result": "inactive"}
    ]}
  ]
}
